Our source for the Ki values is patent US9611277B2 (Janssen Pharmaceutica NV, priority 2013, dated 2017).

SMILES strings stand for the structures.

The target in one test is human orexin 1 receptor (Homo sapiens, UniProt O43613). In words: Human orexin 1 receptor radioligand binding. The settings on record: human orexin 1 receptor; averages of 2-20 runs; read-out: hOX1 Ki. A digest of the protocol:
(§1)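 Ki values derive from one-site competition IC50s corrected with the radioligand's predetermined Kd, triplicates per run, averaged over 2-20 runs. Cell homogenates (rat or human OX1R) compete against [^3H]-thiazolyl-oxadiazolyl-pyrrolidine methanone in PBS; 10 μM almorexant sets nonspecific binding; scintillation counting after washing.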

A further test deals with human orexin 2 receptor (Homo sapiens (Human), UniProt O43614). Nature of the test: Human orexin 2 receptor radioligand binding. The settings on record: human orexin 2 receptor; averages of 2-20 runs; read-out: hOX2 Ki. A digest of the protocol:
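Ki derived from one-site competition IC50 using predetermined Kd of [3H]-EMPA, triplicate points, 2-20 runs averaged. Binding done on homogenized HEK293 cells stably expressing human orexin 2 receptor, DMSO ≤0.1%, with 10 μM almorexant defining nonspecific binding; filtered, washed, scintillation counted.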

Another test addresses rat orexin 1 receptor (Rattus norvegicus, UniProt P56718). In words: Rat orexin 1 receptor radioligand binding. To be noted: rat orexin 1 receptor; averages of 2-20 runs; read-out: rOX1 Ki. A digest of the protocol: as §1

The Ki is the equilibrium dissociation constant of an inhibitor or competing ligand from its target.

Sequence of human orexin 2 receptor (O43614 whole entry): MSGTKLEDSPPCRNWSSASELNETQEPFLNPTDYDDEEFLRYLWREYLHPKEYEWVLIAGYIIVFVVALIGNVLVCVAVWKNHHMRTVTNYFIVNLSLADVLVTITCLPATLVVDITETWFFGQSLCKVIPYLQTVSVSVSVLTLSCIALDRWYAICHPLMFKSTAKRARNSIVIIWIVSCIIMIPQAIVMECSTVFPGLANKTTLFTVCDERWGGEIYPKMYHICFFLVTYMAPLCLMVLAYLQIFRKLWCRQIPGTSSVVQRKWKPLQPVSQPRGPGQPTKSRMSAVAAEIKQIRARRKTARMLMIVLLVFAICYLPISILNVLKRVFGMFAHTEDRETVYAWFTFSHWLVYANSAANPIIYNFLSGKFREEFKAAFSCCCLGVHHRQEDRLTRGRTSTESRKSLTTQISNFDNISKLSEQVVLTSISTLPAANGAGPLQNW

`Cc1cnc(C(=O)N2C[C@H]3C[C@@H](Nc4cnc(C(F)(F)F)cn4)[C@@H]2C3)c(-c2ncccn2)c1` [Example 190, (5-methyl-3-(pyrimidin-2-yl)pyridin-2-yl)((1S,4S,6R)-6-((5-(trifluoromethyl)pyrazin-2-yl)amino)-2-azabicyclo[2.2.1]heptan-2-yl)methanone]: the Ki was 0.012 µM at human orexin 1 receptor, over 10 µM at human orexin 2 receptor and 0.012 µM at rat orexin 1 receptor.
`Cc1ccc(-c2ncccn2)c(C(=O)N2C[C@H]3C[C@@H](Nc4cnc(C(F)(F)F)cn4)[C@@H]2C3)n1` [Example 191, (6-methyl-3-(pyrimidin-2-yl)pyridin-2-yl)((1S,4S,6R)-6-((5-(trifluoromethyl)pyrazin-2-yl)amino)-2-azabicyclo[2.2.1]heptan-2-yl)methanone]: the inhibition constant Ki at human orexin 1 receptor amounted to 0.013 µM; on human orexin 2 receptor, 0.163 µM; at rat orexin 1 receptor, 0.015 µM.
For `O=C(c1cccc(F)c1-n1nccn1)N1C[C@H]2C[C@@H](Nc3cnc(C(F)(F)F)cn3)[C@@H]1C2` [Example 192, (3-fluoro-2-(2H-1,2,3-triazol-2-yl)phenyl)((1S,4S,6R)-6-((5-(trifluoromethyl)pyrazin-2-yl)amino)-2-azabicyclo[2.2.1]heptan-2-yl)methanone], the inhibition constant (Ki) was found to be 0.007 µM at human orexin 1 receptor, 0.249 µM on human orexin 2 receptor and 0.008 µM on rat orexin 1 receptor.
Consider `O=C(c1ccc(F)cc1-n1nccn1)N1C[C@H]2C[C@@H](Nc3cnc(C(F)(F)F)cn3)[C@@H]1C2` [Example 193, (4-fluoro-2-(2H-1,2,3-triazol-2-yl)phenyl)((1S,4S,6R)-6-((5-(trifluoromethyl)pyrazin-2-yl)amino)-2-azabicyclo[2.2.1]heptan-2-yl)methanone], for which the Ki worked out at 0.065 µM on human orexin 1 receptor, 2 µM on human orexin 2 receptor and 0.04 µM on rat orexin 1 receptor.
With `O=C(c1cc(F)ccc1-n1nccn1)N1CC2CC(Nc3cnc(C(F)(F)F)cn3)C1C2` [Example 194, ((5-fluoro-2-(2H-1,2,3-triazol-2-yl)phenyl)((1S,4S,6R)-6-((5-(trifluoromethyl)pyrazin-2-yl)amino)-2-azabicyclo[2.2.1]heptan-2-yl)methanone], the inhibition constant (Ki) on human orexin 1 receptor turned out to be 0.008 µM; on human orexin 2 receptor it was 0.241 µM; at rat orexin 1 receptor, 0.008 µM.
Consider `O=C(c1c(F)cccc1-n1nccn1)N1C[C@H]2C[C@@H](Nc3cnc(C(F)(F)F)cn3)[C@@H]1C2` [Example 195, (2-fluoro-6-(2H-1,2,3-triazol-2-yl)phenyl)((1S,4S,6R)-6-((5-(trifluoromethyl)pyrazin-2-yl)amino)-2-azabicyclo[2.2.1]heptan-2-yl)methanone], for which the Ki turned out to be 0.008 µM at human orexin 1 receptor, 0.199 µM on human orexin 2 receptor and 0.009 µM at rat orexin 1 receptor.
The matching figures for `Cc1cccc(C(=O)N2C[C@H]3C[C@@H](Nc4cnc(C(F)(F)F)cn4)[C@@H]2C3)c1-n1nccn1` [Example 196, (3-methyl-2-(2H-1,2,3-triazol-2-yl)phenyl)((1S,4S,6R)-6-((5-(trifluoromethyl)pyrazin-2-yl)amino)-2-azabicyclo[2.2.1]heptan-2-yl)methanone]: 0.004 µM, 0.06 µM and 0.006 µM.
The matching figures for `COc1ccc(C(=O)N2C[C@H]3C[C@@H](Nc4cnc(C(F)(F)F)cn4)[C@@H]2C3)c(-n2nccn2)c1` [Example 197, (4-methoxy-2-(2H-1,2,3-triazol-2-yl)phenyl)((1S,4S,6R)-6-((5-(trifluoromethyl)pyrazin-2-yl)amino)-2-azabicyclo[2.2.1]heptan-2-yl)methanone]: 0.039 µM, 9.7 µM and 0.093 µM.
The matching figures for `O=C(c1ccc(F)cc1-c1ncccn1)N1C[C@H]2C[C@@H](Nc3cnc(C(F)(F)F)cn3)[C@@H]1C2` [Example 198, (4-fluoro-2-(pyrimidin-2-yl)phenyl)((1S,4S,6R)-6-((5-(trifluoromethyl)pyrazin-2-yl)amino)-2-azabicyclo[2.2.1]heptan-2-yl)methanone]: 0.009 µM, 1.38 µM and 0.011 µM.
For the molecule `O=C(c1cc(F)ccc1-c1ncccn1)N1C[C@H]2C[C@@H](Nc3cnc(C(F)(F)F)cn3)[C@@H]1C2` [Example 199, (5-fluoro-2-(pyrimidin-2-yl)phenyl)((1S,4S,6R)-6-((5-(trifluoromethyl)pyrazin-2-yl)amino)-2-azabicyclo[2.2.1]heptan-2-yl)methanone], the inhibition constant (Ki) at human orexin 1 receptor turned out to be 0.008 µM; at human orexin 2 receptor, 0.221 µM; at rat orexin 1 receptor, 0.006 µM.
The matching figures for `O=C(c1c(F)cccc1-c1ncccn1)N1C[C@H]2C[C@@H](Nc3cnc(C(F)(F)F)cn3)[C@@H]1C2` [Example 200, (2-fluoro-6-(pyrimidin-2-yl)phenyl)((1S,4S,6R)-6-((5-(trifluoromethyl)pyrazin-2-yl)amino)-2-azabicyclo[2.2.1]heptan-2-yl)methanone]: 0.006 µM, 0.24 µM and 0.007 µM.
With `O=C(c1ccccc1-c1ncccn1)N1C[C@H]2C[C@@H](Nc3cnc(C(F)(F)F)cn3)[C@@H]1C2` [Example 201, (2-(pyrimidin-2-yl)phenyl)((1S,4S,6R)-6-((5-(trifluoromethyl)pyrazin-2-yl)amino)-2-azabicyclo[2.2.1]heptan-2-yl)methanone], the Ki stood at 0.006 µM on human orexin 1 receptor, 0.213 µM on human orexin 2 receptor and 0.006 µM on rat orexin 1 receptor.
With `O=C(c1cc(F)ccc1-c1ncco1)N1C[C@H]2C[C@@H](Nc3cnc(C(F)(F)F)cn3)[C@@H]1C2` [Example 202, (5-fluoro-2-(oxazol-2-yl)phenyl)((1S,4S,6R)-6-((5-(trifluoromethyl)pyrazin-2-yl)amino)-2-azabicyclo[2.2.1]heptan-2-yl)methanone], the results for the Ki on human orexin 1 receptor, at human orexin 2 receptor and at rat orexin 1 receptor were 0.013 µM, 0.302 µM and 0.013 µM, respectively.
Regarding `O=C(c1ccccc1-c1ncc(F)cn1)N1C[C@H]2C[C@@H](Nc3cnc(C(F)(F)F)cn3)[C@@H]1C2` [Example 203, (2-(5-fluoropyrimidin-2-yl)phenyl)((1S,4S,6R)-6-((5-(trifluoromethyl)pyrazin-2-yl)amino)-2-azabicyclo[2.2.1]heptan-2-yl)methanone], the inhibitory constant (Ki) was 0.009 µM on human orexin 1 receptor, 0.545 µM on human orexin 2 receptor and 0.009 µM at rat orexin 1 receptor.
As for `O=C(c1cccc(F)c1-c1ncc(F)cn1)N1C[C@H]2C[C@@H](Nc3cnc(C(F)(F)F)cn3)[C@@H]1C2` [Example 204, (3-fluoro-2-(5-fluoropyrimidin-2-yl)phenyl)((1S,4S,6R)-6-((5-(trifluoromethyl)pyrazin-2-yl)amino)-2-azabicyclo[2.2.1]heptan-2-yl)methanone], the Ki on human orexin 1 receptor was found to be 0.009 µM; at human orexin 2 receptor it was 0.96 µM; at rat orexin 1 receptor, 0.009 µM.
In the case of `O=C(c1nccnc1-c1ccccc1)N1C[C@H]2C[C@@H](Nc3cnc(C(F)(F)F)cn3)[C@@H]1C2` [Example 205, (3-phenylpyrazin-2-yl)((1S,4S,6R)-6-((5-(trifluoromethyl)pyrazin-2-yl)amino)-2-azabicyclo[2.2.1]heptan-2-yl)methanone], the values for the Ki on human orexin 1 receptor, at human orexin 2 receptor and at rat orexin 1 receptor were 0.035 µM, 0.846 µM and 0.051 µM, respectively.
The matching figures for `O=C(c1ccccc1-c1ccccc1)N1C[C@H]2C[C@@H](Nc3cnc(C(F)(F)F)cn3)[C@@H]1C2` [Example 206, [1,1′-biphenyl]-2-yl((1S,4S,6R)-6-((5-(trifluoromethyl)pyrazin-2-yl)amino)-2-azabicyclo[2.2.1]heptan-2-yl)methanone]: 0.01 µM, 0.103 µM and 0.008 µM.
The matching figures for `O=C(c1occc1-c1ccccc1)N1C[C@H]2C[C@@H](Nc3cnc(C(F)(F)F)cn3)[C@@H]1C2` [Example 207, (3-phenylfuran-2-yl)((1S,4S,6R)-6-((5-(trifluoromethyl)pyrazin-2-yl)amino)-2-azabicyclo[2.2.1]heptan-2-yl)methanone]: 0.127 µM, 0.611 µM and 0.143 µM.
Take `CN(c1cnc(C(F)(F)F)cn1)[C@@H]1C[C@H]2C[C@@H]1N(C(=O)c1cccc(F)c1-c1ncccn1)C2` [Example 208, (3-fluoro-2-(pyrimidin-2-yl)phenyl)((1S,4S,6R)-6-(methyl(5-(trifluoromethyl)pyrazin-2-yl)amino)-2-azabicyclo[2.2.1]heptan-2-yl)methanone]: the Ki at human orexin 1 receptor turned out to be 0.006 µM; at human orexin 2 receptor, 0.846 µM; on rat orexin 1 receptor, 0.007 µM.
The matching figures for `CN(c1cnc(C(F)(F)F)cn1)[C@@H]1C[C@H]2C[C@@H]1N(C(=O)c1cc(F)ccc1-c1ncccn1)C2` [Example 209, (5-fluoro-2-(pyrimidin-2-yl)phenyl)((1S,4S,6R)-6-(methyl(5-(trifluoromethyl)pyrazin-2-yl)amino)-2-azabicyclo[2.2.1]heptan-2-yl)methanone]: 0.005 µM, 0.753 µM and 0.009 µM.
Taken in the same sequence, the figures for `CN(c1cnc(C(F)(F)F)cn1)[C@@H]1C[C@H]2C[C@@H]1N(C(=O)c1ccccc1-c1ncccn1)C2` [Example 210, ((1S,4S,6R)-6-(methyl(5-(trifluoromethyl)pyrazin-2-yl)amino)-2-azabicyclo[2.2.1]heptan-2-yl)(2-(pyrimidin-2-yl)phenyl)methanone] were 0.005 µM, 0.502 µM and 0.006 µM.
